Where two headings read alike, the source gives them in different places.
Tests used:
[1] = target: apolipoprotein(a), [apo(a)], apolipoproteinB-100, [apoB-100], coupling reaction that generates Lp(a) (Homo sapiens, UniProt P04114+P08519); experiment: LPABC screen: lipoprotein(a) biochemical coupling assay, Lp(a) content by ELISA; conditions: recombinant apo(a) 17-kringle (293 cell media) + HepG2 conditioned media, 67 minutes, 37° C., 0.3 to 50 μM compound; read-out: Lp ABC IC50
Description: LPABC Screen The lipoprotein(a), [Lp(a)], biochemical coupling assay (LPABC) is used to characterize inhibitors of the apolipoprotein(a), [apo(a)], apolipoproteinB-100, [apoB-100], coupling reaction that generates Lp(a). Conditioned media from 293 cells (ATCC CRL-1573), permanently transfected with an apo(a) 17-kringle cDNA expression construct (pcDNA-AMP, In Vitrogen, Carlsbad, Calif.) using standard molecular biology techniques, was used as a source of recombinant apo(a) is diluted 1:3 with phosphate buffered saline (PBS) and 90 μL is pipetted into each well of a 96-well plate and placed into a 37° C. incubator for 10 minutes. Twenty microliters of a 0.3 to 50 μM solution of a compound of the present invention in PBS is added to the warmed plate. Ninety microliters of HepG2 (ATCC HB-8065) cell conditioned media diluted 1:3 with PBS is added to the apo(a)/compound mixture and mixed by pipetting up and down 5 times. The reaction is incubated for 67 minutes in a 37° C. incubator. A 100 μL aliquot of the reaction is removed and assayed for its Lp(a) content by an enzyme linked immunosorbent assay (ELISA).

[2] = tested on: Lp(a) production in HepG2^K17 cells; experiment: LPA3 screen: inhibition of Lp(a) production in transfected HepG2 cells, Lp(a) in media by ELISA; type: cell-based; conditions: 8 hours, 0.3 to 50 μM compound, Lp(a) normalized for total protein, read-out: Lp A3 IC50
Description: The LPA3 screen is used to identify compounds that inhibit Lp(a) production. This screen employs permanently transfected HepG2 cells (HepG2^K17) that are generated using an apo(a) 17-kringle cDNA expression construct (pcDNA-AMP, In Vitrogen, Carlsbad, Calif.) in accordance with methods that are well-known in molecular biology.
HepG2^K17 cells are seeded in 96-well plates at a density of 75,000 cells per well in 0.25 mL of Dulbecco's Modified Eagle Media (DMEM) containing 10% fetal bovine serum (FBS). Seeded plates are incubated overnight in a 37° C., 5% CO2/95% 02 incubator. The media is removed, replaced with (1) fresh media, or (2) fresh media plus 0.3 to 50 μM of a compound of the present invention in 20 μL of PBS, and the plates returned to the incubator for 8 hours. After the additional 8 hours of incubation, Lp(a) is assayed in the media by ELISA. Cells are digested with 0.5N NaOH overnight and assayed for total protein. Lp(a) values are normalized for total protein content.

Row | Compound | IC50 [1] | IC50 ([2]; Homo sapiens) | IC50 [2]
1 | Cc1ccsc1C(=O)N(Cc1ccc2c(c1)C(C)(C)CCC2(C)C)c1ccc(I)cc1 [Example 59, 3-Methyl-thiophene-2-carboxylic acid (4-iodo-phenyl)-(5,5,8,8-tetramethyl-5,6,7,8-tetrahydro-naphthalen-2-ylmethyl)-amide] | > 50 µM | 41.1 µM | 
2 | COc1ccc(CN(C(=O)c2ccccc2)c2ccccc2)cc1 [Example 60, N-(4-Methoxy-benzyl)-N-phenyl-benzamide] | > 50 µM | 28.8 µM | 
3 | COc1cccc(CN(C(=O)c2ccccc2)c2ccccc2)c1 [Example 61, N-(3-Methoxy-benzyl)-N-phenyl-benzamide] | > 50 µM | 47.1 µM | 
4 | COc1cc(C(=O)N(Cc2ccc3ccccc3c2)c2cnc3ccccc3c2)cc(OC)c1OC [Example 62, 3,4,5-Trimethoxy-N-naphthalen-2-ylmethyl-N-quinolin-3-yl-benzamide] | > 50 µM | 22.2 µM | 
5 | COc1cc(C(=O)N(Cc2ccc(C(C)(C)C)cc2)c2cnc3ccccc3c2)cc(OC)c1OC [Example 63, N-(4-tert-Butyl-benzyl)-3,4,5-trimethoxy-N-quinolin-3-yl-benzamide] | > 50 µM | 25.1 µM | 
6 | COc1cc(C(=O)N(Cc2ccccc2-c2ccccc2)c2cnc3ccccc3c2)cc(OC)c1OC [Example 64, N-Biphenyl-2-ylmethyl-3,4,5-trimethoxy-N-quinolin-3-yl-benzamide] | > 50 µM | 13.1 µM | 
7 | COc1ccc(N(Cc2ccc3c(c2)C(C)(C)CCC3(C)C)C(=O)c2cc(OC)c(OC)c(OC)c2)cn1 [Example 65, 3,4,5-Trimethoxy-N-(6-methoxy-pyridin-3-yl)-N-(5,5,8,8-tetramethyl-5,6,7,8-tetrahydro-naphthalen-2-ylmethyl)-benzamide] | > 50 µM | 32.6 µM | 
8 | COc1ccc(N(Cc2cc(C(C)(C)C)cc(C(C)(C)C)c2)C(=O)c2cc(OC)c(OC)c(OC)c2)cn1 [Example 66, N-(3,5-Di-tert-butyl-benzyl)-3,4,5-trimethoxy-N-(6-methoxy-pyridin-3-yl)-benzamide] | > 50 µM | 19.7 µM | 
9 | COc1ccc(N(Cc2ccc(Cl)c(Cl)c2)C(=O)c2cc(OC)c(OC)c(OC)c2)cn1 [Example 67, N-(3,4-Dichloro-benzyl)-3,4,5-trimethoxy-N-(6-methoxy-pyridin-3-yl)-benzamide] | > 50 µM | 54.6 µM | 
10 | CC(C)c1ccc(C(=O)N(Cc2ccc3c(c2)C(C)(C)CCC3(C)C)c2cccnc2)cc1 [Example 68, 4-Isopropyl-N-pyridin-3-yl-N-(5,5,8,8-tetramethyl-5,6,7,8-tetrahydro-naphthalen-2-ylmethyl)-benzamide] | > 50 µM | 39.8 µM | 
11 | COc1cccc(CN(C(=O)c2ccc(C(C)C)cc2)c2cccnc2)c1 [Example 69, 4-Isopropyl-N-(3-methoxy-benzyl)-N-pyridin-3-yl-benzamide] | > 50 µM | 18.8 µM | 
12 | CC(C)c1ccc(C(=O)N(Cc2ccc3ccccc3c2)c2cccnc2)cc1 [Example 70, 4-Isopropyl-N-naphthalen-2-ylmethyl-N-pyridin-3-yl-benzamide] | > 50 µM | 7.2 µM | 
13 | CC(C)c1ccc(C(=O)N(Cc2ccc(C(C)(C)C)cc2)c2cccnc2)cc1 [Example 71, N-(4-tert-Butyl-benzyl)-4-isopropyl-N-pyridin-3-yl-benzamide] | > 50 µM | 43 µM | 
14 | N-Biphenyl-2-ylmethyl-N-(3,4-dimethoxy-phenyl)-2-phenylmethanesulfinyl- [Example 143] |  |  | 1.6 µM

Now from value to compound, other results behind:

Row | IC50 [1] | Compound | IC50 ([2]; Homo sapiens) | IC50 [2]
15 | > 50 µM | COc1ccc(CN(C(=O)c2ccccc2SCc2ccccc2)c2ccc(OC)cc2)cc1 [Example 40, 2-Benzylsulfanyl-N-(4-methoxy-benzyl)-N-(4-methoxy-phenyl)-benzamide] | 60.4 µM | 
16 | > 50 µM | COc1ccc(C(=O)N(Cc2cc(C(C)(C)C)cc(C(C)(C)C)c2)c2ccccc2)cc1OC [Example 41, N-(3,5-Di-tert-butyl-benzyl)-3,4-dimethoxy-N-phenyl-benzamide] | 49.3 µM | 
17 | > 50 µM | COc1ccc(C(=O)N(Cc2cc(C(F)(F)F)cc(C(F)(F)F)c2)c2ccccc2)cc1OC [Example 42, N-(3,5-Bis-trifluoromethyl-benzyl)-3,4-dimethoxy-N-phenyl-benzamide] | 70.8 µM | 
18 | > 50 µM | COc1ccc(C(=O)N(Cc2cc(Br)cc(Br)c2)c2ccccc2)cc1OC [Example 43, N-(3,5-Dibromo-benzyl)-3,4-dimethoxy-N-phenyl-benzamide] | 31.6 µM | 
19 | > 50 µM | COc1ccc(CN(C(=O)c2ccc(OC)c(OC)c2)c2ccccc2)cc1 [Example 44, 3,4-Dimethoxy-N-(4-methoxy-benzyl)-N-phenyl-benzamide] | 51.4 µM | 
20 | > 50 µM | COc1cccc(CN(C(=O)c2ccc(OC)c(OC)c2)c2ccccc2)c1 [Example 45, 3,4-Dimethoxy-N-(3-methoxy-benzyl)-N-phenyl-benzamide] | 52.1 µM | 
21 | > 50 µM | COc1ccc(C(=O)N(Cc2ccc(Cl)c(Cl)c2)c2ccccc2)cc1OC [Example 46, N-(3,4-Dichloro-benzyl)-3,4-dimethoxy-N-phenyl-benzamide] | 35.1 µM | 
22 | > 50 µM | COc1ccc(C(=O)N(Cc2ccc3ccccc3c2)c2ccccc2)cc1OC [Example 47, 3,4-Dimethoxy-N-naphthalen-2-ylmethyl-N-phenyl-benzamide] | 17.3 µM | 
23 | > 50 µM | COc1ccc(C(=O)N(Cc2ccc(C(C)(C)C)cc2)c2ccccc2)cc1OC [Example 48, N-(4-tert-Butyl-benzyl)-3,4-dimethoxy-N-phenyl-benzamide] | 30.9 µM | 
24 | > 50 µM | COc1ccc(C(=O)N(Cc2ccccc2-c2ccccc2)c2ccccc2)cc1OC [Example 49, N-Biphenyl-2-ylmethyl-3,4-dimethoxy-N-phenyl-benzamide] | 14 µM | 
25 | > 50 µM | COc1ccccc1N(Cc1ccc(Cl)c(Cl)c1)C(=O)c1ccccc1 [Example 50, N-(3,4-Dichloro-benzyl)-N-(2-methoxy-phenyl)-benzamide] | 15 µM | 
26 | > 50 µM | CCN(CC)CCCc1ccc(N(Cc2cc(C(C)(C)C)cc(C(C)(C)C)c2)C(=O)c2ccccc2)cc1 [Example 51, N-(3,5-Di-tert-butyl-benzyl)-N-[4-(3-diethylamino-propyl)-phenyl]-benzamide] | 24.5 µM | 
27 | > 50 µM | CCN(CC)CCCc1ccc(N(Cc2cc(C(F)(F)F)cc(C(F)(F)F)c2)C(=O)c2ccccc2)cc1 [Example 52, N-(3,5-Bis-trifluoromethyl-benzyl)-N-[4-(3-diethylamino-propyl)-phenyl]-benzamide] | 12 µM | 
28 | > 50 µM | CCN(CC)CCCc1ccc(N(Cc2cc(Br)cc(Br)c2)C(=O)c2ccccc2)cc1 [Example 53, N-(3,5-Dibromo-benzyl)-N-[4-(3-diethylamino-propyl)-phenyl]-benzamide] | 14.6 µM | 
29 | > 50 µM | CCN(CC)CCCc1ccc(N(Cc2ccc(OC)cc2)C(=O)c2ccccc2)cc1 [Example 54, N-[4-(3-Diethylamino-propyl)-phenyl]-N-(4-methoxy-benzyl)-benzamide] | 41.6 µM | 
30 | > 50 µM | CCN(CC)CCCc1ccc(N(Cc2cccc(OC)c2)C(=O)c2ccccc2)cc1 [Example 55, N-[4-(3-Diethylamino-propyl)-phenyl]-N-(3-methoxy-benzyl)-benzamide] | 37 µM | 
31 | > 50 µM | CCN(CC)CCCc1ccc(N(Cc2ccc(Cl)c(Cl)c2)C(=O)c2ccccc2)cc1 [Example 56, N-(3,4-Dichloro-benzyl)-N-[4-(3-diethylamino-propyl)-phenyl]-benzamide] | 11 µM | 
32 | > 50 µM | CCN(CC)CCCc1ccc(N(Cc2ccc3ccccc3c2)C(=O)c2ccccc2)cc1 [Example 57, N-[4-(3-Diethylamino-propyl)-phenyl]-N-naphthalen-2-ylmethyl-benzamide] | 11.4 µM | 
33 | > 50 µM | CCN(CC)CCCc1ccc(N(Cc2ccccc2-c2ccccc2)C(=O)c2ccccc2)cc1 [Example 58, N-Biphenyl-2-ylmethyl-N-[4-(3-diethylamino-propyl)-phenyl]-benzamide] | 11.6 µM | 
